Test results: the METLIN SMRT retention time set (Domingo-Almenara et al. 2019)

Test: gradient 5% acetonitrile 3 min, to 50% in 2 min, to 85% in 15 min, held 3 min, 100 µL/min
Conditions: column: Zorbax Extend-C18 2.1 x 50 mm; eluents: water / acetonitrile, 0.1% formic acid
Method in brief: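 Retention times come from adduct peaks that were picked computationally and then checked by hand. The standards, pure and pooled in mixtures of ~100 molecules, were run on a Zorbax Extend-C18 column (2.1 × 50 mm, 1.8 μm) at 100 μL/min with water and acetonitrile, each with 0.1% formic acid. Detection was by quadrupole time-of-flight mass spectrometry in positive and negative ionization mode, with a dead volume of 40 μL and a dwell volume of 900 μL.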

Structure (SMILES)	RP-LC retention time
O=C(C1CCN(c2cnn(Cc3ccccc3)c(=O)c2)CC1)N1CCSCC1	648 s
O=C1NC2(CCN(C(=O)Cc3ccccc3)CC2)Nc2c(Cl)cccc21	756 s
Cc1sc(-c2noc(C3CCC3)n2)cc1S(=O)(=O)N1CCC(C(=O)N2CCCCCC2)CC1	1180 s
Cc1cc(C)c2c(n1)SCC(=O)N2CC(=O)NCCN(C)C1CCCCC1	585 s
CCOc1ccccc1-c1csc(NC(=O)c2sc(C)nc2C)n1	981 s
CSc1cccc(NC(=O)CN2CCC3(CC2)N=C(c2ccc(Cl)cc2)C(=O)N3)c1	627 s
O=c1ccc(-c2ccc(Br)cc2)nn1Cc1nc(-c2cccs2)no1	1020 s
COCCNC(=O)C1Cn2cccc2C(=O)N1CC(C)C (centres undefined)	624 s
CCCN1CCn2cc(S(=O)(=O)NCc3ccc(OC)cc3)cc2C1=O	990 s
CCC(=O)N1CCc2sc(C(=O)NCc3ccccn3)cc2C1	577 s
COc1ccccc1CCNS(=O)(=O)c1cc2c3c(c1)CCC(=O)N3CCC2	882 s
COCC(C)(O)CNC(=O)NC1CCCCC1 (centres undefined)	596 s
CCc1nc(-c2cc3ccccc3nc2N2CCN(c3ccc(OC)cc3)CC2)no1	687 s
O=C(Nc1cnc(-c2ccccc2)nc1)c1cccc(F)c1	970 s
Cn1c(=O)sc2cc(S(=O)(=O)N3CCC(C(=O)Nc4ccc(F)c(Cl)c4)CC3)ccc21	938 s
CCOc1ccc(N2C(=O)C3N=NN(Cc4nc(-c5ccccc5OCC)no4)C3C2=O)cc1 (centres undefined)	980 s
COc1ccc(Nc2c(-c3ccc(SC)cc3)nc3ncccn23)cc1OC	702 s
O=C1CC(c2nc(-c3ccc4c(c3)OCO4)no2)CN1c1cccc(Cl)c1 (centres undefined)	999 s
COc1ccc(-n2ccn3c(CCC(=O)NCCc4c[nH]c5ccccc45)nnc3c2=O)cc1	704 s
COc1ccc2c(c1)C1(CCN(S(=O)(=O)c3ccc(NC(C)=O)cc3)C1)C(=O)N2 (centres undefined)	686 s
COc1cc(Nc2c(C#N)cnc3cc(OCCCN4CCN(C)CC4)c(OC)cc23)c(Cl)cc1Cl	675 s
CS(=O)(=O)N1CCC(OC2CCN(C(=O)Nc3ccccc3Cl)CC2)CC1	785 s
CC1Oc2ccc(-c3csc(NC(=O)c4ccncc4)n3)cc2N(C)C1=O (centres undefined)	766 s

Structure (SMILES)	RP-LC retention time
CC(C)NC(=O)CN1C(=O)COc2ccc(C(=O)NC3CCCC3)cc21	712 s
Cc1ccc(CNCCSc2nnnn2C)s1	580 s
CC(=O)N1CCCC1c1nc2ccccc2n1CC(=O)N1CCCC1 (centres undefined)	574 s
CCCNC(=O)C1CCCN(S(=O)(=O)c2cc(-c3noc(C4CCCC4)n3)cs2)C1 (centres undefined)	1050 s
COc1cccc(NC(=O)N2CC(c3nc(C)no3)C3(CCOCC3)C2)c1 (centres undefined)	703 s
CCN1C(=O)c2cccnc2Sc2cc(C(=O)NC(C)C)ccc21	697 s
Cc1nc(-c2ccncc2)nc2c1CCC(=O)N2Cc1ccncc1	540 s
C=CCNC(=O)C1CCN(C(=O)Nc2ccc(NC(=O)Nc3ccc(C)c(C)c3)cc2)CC1	740 s
CCOC(=O)c1cccc(NC(=O)C2CCN(C(=O)C3Sc4ccccc4NC3=O)CC2)c1 (centres undefined)	812 s
COc1ccc(-c2cn3c(CC(=O)NC4CCCCCC4)csc3n2)cc1OC	729 s
CCC(=O)Nc1cc2c(cc1Sc1ccc(C)cc1)n(C)c(=O)n2C	893 s
O=C(NCC1(c2cccs2)CC1)c1ccsc1	791 s
Cn1cc(-c2cc3n(n2)CCC(=O)N3CC(=O)Nc2ccc(Cl)cc2)c2ccccc21	902 s
COc1ccc2c(c1)c(CN1C[C@@H](CO)[C@H](c3nc(C)no3)C1)cn2C	555 s
CCC1CCCCN1Cc1nc(Cn2ccn3nc(-c4ccc(C)c(C)c4)cc3c2=O)no1 (centres undefined)	765 s
CCn1cc(-c2nc(C(=O)Nc3ccc(F)c(F)c3)cs2)c2cccnc21	940 s
Cc1nn(-c2ccccc2)c(C)c1S(=O)(=O)N1CCC(C(=O)N2CCc3ccccc32)CC1	1020 s
O=C(NC1CC1)c1cc2cc(Br)ccc2[nH]1	817 s
Cc1nn(-c2nc(-c3ccc(Cl)cc3)cs2)c(C)c1CC(=O)N1CCc2ccccc2C1	1330 s
CCOC(=O)c1cc(S(=O)(=O)N2CCCC2C(=O)NC2CCCCC2)cn1C (centres undefined)	875 s
COc1cn2c(cc1=O)C(=O)N(CCNC(=O)c1c(F)cccc1Cl)CC2	660 s
COc1cc(C2C(C(=O)N3CCCC3)CCC(=O)N2c2ccc3c(c2)OCO3)cc(OC)c1OC (centres undefined)	665 s
O=C(NCC(=O)N1CCCc2ccccc21)c1ccccc1F	831 s

Structure (SMILES)	RP-LC retention time
O=C(Nc1ccc2ccccc2c1)c1ccc(Cl)cc1Cl	1130 s
CCc1cc(C(=O)Nc2ccc(OC)cc2)nc2cc(-c3ccccn3)nn12	1000 s
CCOc1ccc(CNC2CCN(c3ccc(C(=O)NC4CC4)cn3)C2)cc1 (centres undefined)	578 s
Cc1ccc(C)c(-c2csc(NC(=O)c3ccc(C)o3)n2)c1	1100 s
CCn1cnc2ccc(-c3noc(COc4ccccc4OC)n3)cc21	712 s
O=C(NCC1CCN(c2ncccn2)CC1)C(=O)Nc1ccon1	614 s
COc1ccc2[nH]c3c(c2c1)CCN1C(=O)N(c2ccccc2OC)C(=O)C31C (centres undefined)	884 s
O=C(NCC1CCOCC1)Nc1cccc(F)c1	698 s
COCCN1CC2(CCN(S(=O)(=O)c3ccc(C)c(Cl)c3)CC2)C1c1ccccc1 (centres undefined)	765 s
Cc1nc(-c2csc(S(=O)(=O)N3CCC(C(=O)NCc4ccccc4)CC3)c2)no1	844 s
Cc1ccc(CNc2c(-c3ccc(C)cc3)nc3ncccn23)cc1	812 s
COc1ccc(NC(=O)N2CCCn3nc(-c4cccc(Cl)c4)cc3C2)cc1F	945 s
Cc1ccc(-c2nnc(Cc3nc(-c4cccnc4)no3)o2)cc1F	812 s
COCCn1cc2c3c(cccc31)CN(C(=O)NCc1ccc(OC)cc1)CC2	822 s
Cc1ccc(CNC(=O)C2(C)CCCN(C(=O)NCCc3ccccc3)C2)cc1 (centres undefined)	912 s
CSc1cccc(NC(=O)NCC(c2cccnc2)c2cn(C)c3ccccc23)c1 (centres undefined)	733 s
O=C(c1cc(-c2ccco2)on1)N1CCCC1c1ccccc1F (centres undefined)	777 s
COc1ccc(OC)c(S(=O)(=O)Nc2ccc3c(c2)CCC(=O)N3C)c1	675 s
CCN1C(=O)COc2ccc(-c3noc(CNC(=O)c4ccccc4)n3)cc21	802 s
CC1CCCN(c2nn(CC(=O)Nc3ccccc3Cl)c(=O)c3ccccc23)C1 (centres undefined)	1180 s
Cc1cc(C)cc(-c2nnc(Cc3nc(-c4cccc(Br)c4)no3)o2)c1	1240 s
CCOC(=O)c1c(S(=O)(=O)N2CCC(C(=O)Nc3ccc(C)cc3)CC2)c(C)n(C)c1C	886 s
Cc1cc2c(N3CCCC(C(=O)N4CCN(c5ccc(Cl)cc5)CC4)C3)nccc2s1 (centres undefined)	799 s

Structure (SMILES)	RP-LC retention time
C=CCNC(=O)C1CCN(C(=O)Nc2ccc(NC(=O)Nc3ccc(C)cc3C)cc2)CC1	728 s
COC(=O)c1cnc2nc(C)ccc2c1Nc1ccc(C)c(F)c1	696 s
CCOC(=O)c1noc2ncnc(N3CCN(c4ccccc4F)CC3)c12	1070 s
CCC1CCCCN1C(=O)c1cnc2nc(C)ccc2c1Nc1ccc(C)cc1C (centres undefined)	706 s
CCn1cc(-c2ccc(OC)cc2)cc1C(=O)O	825 s
Cn1nc(C(=O)N2CCCC(C(=O)NC3CC3)C2)c2c1CCN(C(=O)c1ccc(F)cc1)C2 (centres undefined)	633 s
Cc1c(CCC(=O)O)c(C)n2c(nc3ccccc32)c1C#N	593 s
O=c1ccc(S(=O)(=O)N2CCCCCC2)cn1Cc1ccccc1F	936 s
COc1ccc(-c2nnc(-c3cc(S(=O)(=O)N4CCC(C)CC4)ccc3Cl)o2)cc1	1160 s
COc1ccc(N2CC(c3nc(-c4ccc5c(c4)oc(=O)n5C(C)C)no3)CC2=O)cc1 (centres undefined)	915 s
Cc1c(F)cccc1NC(=O)N1C[C@@H](F)C[C@H]1C(=O)N1CCc2ccccc2C1	799 s
Cc1ccccc1S(=O)(=O)N1CCC(OCCOCc2ccccc2)CC1	1130 s
CCN1CCN(Cc2ccc(NC(=O)c3ccc(C)c(NC(=O)c4cncc(-c5cccs5)c4)c3)cc2C(F)(F)F)CC1	844 s
O=C(O)c1ccc(NC(=O)c2ccc([N+](=O)[O-])cc2Cl)cc1	719 s
COc1ccc(-n2c(=O)c3sccc3n(Cc3nc(-c4ccccc4)no3)c2=O)cc1	953 s
COC(=O)CNC(=O)N1CCCCCC1c1ccc(C)cc1 (centres undefined)	852 s
O=C(CS(=O)(=O)c1cn(Cc2cccc(F)c2)c2ccccc12)Nc1ccc(F)cc1	918 s
Cc1cc(NC(=O)C(=O)NCC2(c3ccc(F)cc3)CCOCC2)no1	736 s
CCn1c(=O)c2c(cc(C)n2C)n(CC(=O)Nc2ccc(OC)c(Cl)c2)c1=O	794 s
COc1ccc2c(c1)C1(CCN(S(=O)(=O)c3cccc(Cl)c3)C1)C(=O)N2C (centres undefined)	978 s
